Reference: patent publication EP4635969A1, “NOVEL GLUCOCORTICOID, METHOD FOR PREPARING SAME, AND USE THEREOF” (Tianjin Pharmaceutical Biotechnology Co., Ltd., priority 2022, dated 2024)

What was measured:
[1] = molecular target: T1, mineralocorticoid receptor (MR) (Homo sapiens, UniProt P08235); experiment: Assay for agonist activity on mineralocorticoid receptor (luciferase reporter, HEK293 cells transfected with pBIND-MR plasmid); assay type: cell-based; conditions: for Target selectivity MR/GR: ratio of EC50 values; for target selectivity: MR/GR and PR/GR, same experimental conditions
T1 sequence (P08235 726-984): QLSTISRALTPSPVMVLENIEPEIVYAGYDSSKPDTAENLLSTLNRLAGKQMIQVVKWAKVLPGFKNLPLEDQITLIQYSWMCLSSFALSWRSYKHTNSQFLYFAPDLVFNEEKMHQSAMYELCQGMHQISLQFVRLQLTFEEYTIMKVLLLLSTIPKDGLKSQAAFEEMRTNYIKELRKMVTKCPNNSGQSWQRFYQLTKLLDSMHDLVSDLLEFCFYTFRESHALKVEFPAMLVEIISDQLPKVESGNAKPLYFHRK
Procedure, shortened: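 HEK293 cells transiently transfected with pBIND-MR or pBIND-PR, seeded in phenol red-free DMEM with 5% charcoal-stripped serum. Compounds tested as 12-point 4-fold dilutions from 50 µM in duplicate, 0.1% DMSO blank. Luciferase luminescence read, EC50 by nonlinear fit.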

[2] = Stability in animal lung tissue homogenate, skin tissue homogenate and aqueous humor; assay type: in vitro ADME
[3] = system: asthma model mice; experiment: Anti-asthma pharmacodynamic experiment: airway hyperresponsiveness (Penh) after methacholine challenge; assay type: in vivo, female BALB/c mice; conditions: compared with the model group
[4] = system: inflammatory cytokines (TNF-α); experiment: Anti-uveitis pharmacodynamic experiment (LPS model): inflammatory cytokines in aqueous humor (ELISA); assay type: in vivo, male SD rats; conditions: values not given
Experimental: Pharmacological Example 5. Pharmacodynamic Experiment on Anti-Uveitis
Test samples: Compounds 23 and 26 were prepared as 5 mg/5 mL ophthalmic suspensions with reference to the formulation of Fluorometholone Eye Drops, and stored at room temperature protected from light until use.
Positive control drug: Fluorometholone Eye Drops (specification: 5 mL/5 mg; Santen Pharmaceutical (CHINA) Co., Ltd.; Lot No. : J20180068) was used as the positive control drug and stored at room temperature protected from light until use.
Fifty male SD rats underwent a one-week adaptive feeding period. The animals were randomly divided into 5 groups: Group 1 served as the blank control group, and Groups 2 to 5 were the model group, fluorometholone group, compound 23 group, and compound 26 group, respectively. Groups 2 to 5 were used to establish rat uveitis models by single subcutaneous injection of 1 mg/kg LPS (Salmonella; Sigma; Lot No. 0000164114) into the plantar tissue of the hindpaw. Salmonella endotoxin was dissolved in normal saline to prepare an injection solution at a concentration of 2 mg/mL, which was injected subcutaneously at 1 mg/kg into the plantar tissue of one paw of the rats. Group 1 was injected with an equal volume of normal saline.
After modeling, 40 µL of normal saline was administered to the eyes (bilateral) of the rats in the blank control group and model group, and 40 µL of the corresponding drugs were administered to the eyes (bilateral) of the […] in the compound 23 group, compound 26 group, and positive drug fluorometholone group, 3 times a day for 2 days. Table 8. Animal grouping and drug administration dosages
Thirty hours after modeling, aqueous humor was collected from both eyes of rats, and partial eyeball tissues of rats were collected. The level of the inflammatory cytokines (TNF-α) was detected using a rat ELISA assay kit.
Statistical analysis was performed using SPSS software. Measurement data were expressed as mean ± standard deviation. One-way ANOVA was used for intergroup comparisons. For data with homogeneous variance, LSD test was used; for data with heterogeneous variance, Dunnett-t test was used. A value of P < 0.05 was considered statistically significant.

[5] = system: dry eye syndrome model New Zealand rabbits; experiment: Dry eye syndrome experiment (benzalkonium chloride model): tear secretion test with phenol red cotton threads; assay type: in vivo, male New Zealand White rabbits; conditions: compared with the model group
[6] = system: psoriasis model mice; experiment: Psoriasis experiment (imiquimod model): skin lesion (PASI) score; assay type: in vivo; conditions: compared with the model group
Experimental: Positive control drug: Fluticasone Propionate Cream (specification: 0.05% × 15 g, Zhejiang Xianju Pharmaceutical Co. Ltd., Lot No. 211106), stored at room temperature protected from light until use.
Adult mice were selected, and the skin of 2 cm × 3 cm on the back of mice was locally depilated. The mice in the model group and drug administration group were applied with 62.5 mg of 5% imiquimod cream on their back for modeling, while the mice in the blank control group were applied with medical petroleum jelly on their back daily. The above procedures were performed once a day for 7 consecutive days.
The mice in the drug administration group were applied with the corresponding drugs on their backs daily at a dose of 0.2 g per mouse, while the blank control group and the model group were only applied with 0.2 g of the test sample drug matrix. One hour after drug administration, the drugs were wiped off with sterile cotton swabs, followed by the application of imiquimod. The above procedures were performed once a day for 7 consecutive days.
Referring to the clinical Psoriasis Area and Severity Index (PASI) scoring criteria, erythema, scaling, and thickness at the skin lesion sites were evaluated on a 0-4 scale on day 8 of modeling, and the total score was obtained by summing the three items.
• (1) Erythema: a score of 0 points indicates no erythema, a score of 1 point indicates erythema appearing light red, a score of 2 points indicates erythema appearing red, a score of 3 points indicates erythema appearing dark red, and a score of 4 points indicates erythema appearing extremely deep red; • (2) Scaling: a score of 0 points indicates no scaling on the surface, a score of 1 point indicates partial skin lesions covered with scaling, a score of 2 points indicates most skin lesions covered with scaling, a score of 3 points indicates almost all skin lesions covered with scaling in layers, and a score of 4 points indicates all skin lesions covered with scaling; • (3) Thickness: a score of 0 points indicates skin lesions flush with normal skin, a score of 1 point indicates skin lesions slightly elevated above normal skin surface, a score of 2 points indicates moderate elevation of skin lesions, a score of 3 points indicates thickened skin lesions with obvious elevation, and a score of 4 points indicates highly thickened skin lesions with prominent elevation.
Statistical analysis was performed using SPSS software, and the results were expressed as mean ± standard deviation. One-way ANOVA was used for intergroup comparisons. For data with homogeneous variance, the LSD test was used; for data with heterogeneous variance, the Dunnett-t test was used. A value of P < 0.05 was considered statistically significant.

[7] = system: intraocular pressure of guinea pigs; experiment: Adverse reactions of continuous ocular administration: intraocular pressure; assay type: in vivo
Procedure, shortened: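 Guinea pigs (300-350 g, both sexes) dosed bilaterally with 5 mg/5 mL ophthalmic suspensions, saline as blank; intraocular pressure measured before dosing and on days 7, 14, 21 and 28.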

Row | SMILES | EC50 [1] | Target selectivity MR/GR [1] | stability in animal lung tissue homogenate, skin tissue homogenate, and aqueous humor [2] | Effects on airway hyperresponsiveness (Penh values) in mice [3] | inflammatory cytokines in aqueous humor [4] | tear secretion [5] | PASI scores [6] | intraocular pressure after continuous ocular administration [7] | target selectivity [1]
1 | C[C@]12C=CC(=O)C=C1[C@@H](F)C[C@H]1[C@@H]3C[C@H]4OC(c5ccc(CSC6CCOC6=O)cc5)O[C@@]4(C(=O)OCF)[C@@]3(C)C[C@H](O)[C@@]12F (stereo partly drawn) [Compound 36, Fluoromethyl (2S,6aS,6bR,7S,8aS,8bS,11aR,12aS,12bS)-2,6b-difluoro-7-hydroxy-6a,8a-dimethyl-4-oxo-10-(4-( ((2-oxotetrahydrofuran-3-yl)thio)methyl)phenyl)-1,2,4,6a,6b,7,8,8a,11a,12,12a,12b-dodecahydro-8bH-naphtho[2',1':4,5]indeno[1,2-d][1,3]dioxole-8b-carboxylate] | > 50 µM | > 4.2×10^5 | relatively stable | significantly decreased the Penh values in mice | suppressed inflammatory cytokines in aqueous humor | significantly increased the tear secretion | significantly decreased PASI scores on day 7 | no abnormal intraocular pressure observed | –
2 | C[C@]12C=CC(=O)C=C1[C@@H](F)C[C@H]1[C@@H]3C[C@H]4OC(c5ccc(CSC6CCOC6=O)cc5)O[C@@]4(C(=O)OCC#N)[C@@]3(C)C[C@H](O)[C@@]12F (stereo partly drawn) [Compound 37, Cyanomethyl (2S,6aS,6bR,7S,8aS,8bS,11aR,12aS,12bS)-2,6b-difluoro-7-hydroxy-6a,8a-dimethyl-4-oxo-10-(4-( ((2-oxotetrahydrofuran-3-yl)thio)methyl)phenyl)-1,2,4,6a,6b,7,8,8a,11a,12,12a,12b-dodecahydro-8bH-naphtho[2',1':4,5]indeno[1,2-d][1,3]dioxole-8b-carboxylate] | – | – | relatively stable | significantly decreased the Penh values in mice | suppressed inflammatory cytokines in aqueous humor | significantly increased the tear secretion | significantly decreased PASI scores on day 7 | no abnormal intraocular pressure observed | target selectivity comparable to that of compound 23
3 | C[C@]12C=CC(=O)C=C1[C@@H](F)C[C@H]1[C@@H]3C[C@H]4OC(c5ccc(CSC6CCOC6=O)nc5)O[C@@]4(C(=O)CO)[C@@]3(C)C[C@H](O)[C@@]12F (stereo partly drawn) [Compound 46, (25,6aS,6bR,78,8a8,8bS,11aR,12a8,12b8S)-2,6b-Difluoro-7-hydroxy-8b-(2-hydroxyacetyl)-6a,8a-dimethyl-10-(6-(((2-oxotetrahydrofuran-3-yl)thio)methyl)pyridin-3-yl)-1,2,6a,6b,7,8,8a,8b,11a,12, 12a,12b-dodecahydro-4H-naphtho[2',1':4,5]indeno[1,2-d][1,3]dioxol-4-one] | – | – | relatively stable | significantly decreased the Penh values in mice | suppressed inflammatory cytokines in aqueous humor | significantly increased the tear secretion | significantly decreased PASI scores on day 7 | no abnormal intraocular pressure observed | target selectivity comparable to that of compound 23
4 | C[C@]12C=CC(=O)C=C1CC[C@H]1[C@@H]3C[C@H]4OC(c5ccc(CSC6CCOC6=O)nc5)O[C@@]4(C(=O)CO)[C@@]3(C)C[C@H](O)[C@@]12F (stereo partly drawn) [Compound 47, (6aS,6bR,7S,8aS,8bS,11aR,12aS,12bS)-6b-Fluoro-7-hydroxy-8b-(2-hydroxyacetyl)-6a,8a-dimethyl-10-(6-(((2-oxotetrahydrofuran-3-yl)thio)methyl)pyridin-3-yl)-1,2,6a,6b,7,8,8a,8b,11a,12,12a,12 b-dodecahydro-4H-naphtho[2',1':4,5]indeno[1,2-d][1,3]dioxol-4-one] | > 50 µM | > 1.5×10^5 | relatively stable | significantly decreased the Penh values in mice | suppressed inflammatory cytokines in aqueous humor | significantly increased the tear secretion | significantly decreased PASI scores on day 7 | no abnormal intraocular pressure observed | –
5 | C[C@]12C=CC(=O)C=C1CC[C@H]1[C@@H]3C[C@H]4OC(c5ccc(CSC6CCOC6=O)nc5)O[C@@]4(C(=O)CO)[C@@]3(C)C[C@H](O)[C@@]12Cl (stereo partly drawn) [Compound 48, (6aS,6bR,7S,8aS,8bS,11aR,12aS,12bS)-6b-Chloro-7-hydroxy-8b-(2-hydroxyacetyl)-6a,8a-dimethyl-10-(6-(((2-oxotetrahydrofuran-3-yl)thio)methyl)pyridin-3-yl)-1,2,6a,6b,7,8,8a,8b,11a,12,12a,12 b-dodecahydro-4H-naphtho[2',1':4,5]indeno[1,2-d][1,3]dioxol-4-one] | – | – | relatively stable | significantly decreased the Penh values in mice | suppressed inflammatory cytokines in aqueous humor | significantly increased the tear secretion | significantly decreased PASI scores on day 7 | no abnormal intraocular pressure observed | target selectivity comparable to that of compound 23
6 | C[C@]12C=CC(=O)C=C1CC[C@H]1[C@@H]3C[C@H]4OC(c5ccc(CSC6CCOC6=O)cn5)O[C@@]4(C(=O)CO)[C@@]3(C)C[C@H](O)[C@@]12Cl (stereo partly drawn) [Compound 51, (6aS,6bR,7S,8aS,8bS,11aR,12aS,12bS)-6b-Chloro-7-hydroxy-8b-(2-hydroxyacetyl)-6a,8a-dimethyl-10-(5-(((2-oxotetrahydrofuran-3-yl)thio)methyl)pyridin-2-yl)-1,2,6a,6b,7,8,8a,8b,11a,12,12a,12 b-dodecahydro-4H-naphtho[2',1':4,5]indeno[1,2-d][1,3]dioxol-4-one] | – | – | relatively stable | significantly decreased the Penh values in mice | suppressed inflammatory cytokines in aqueous humor | significantly increased the tear secretion | significantly decreased PASI scores on day 7 | no abnormal intraocular pressure observed | target selectivity comparable to that of compound 23
